The text below walks through data of US7816352B2, “Apoptosis inhibitors” (The Regents of The University of California, priority 2005, dated 2010).

Each structure is given as a SMILES string. Read-outs that look alike come from different tables or passages of the source.

One experiment relates to thymocytes. In words: Cytoprotection of mouse thymocytes from dexamethasone-induced apoptosis (PI/DiOC6 flow cytometry). Type of experiment: cell-based, C57Bl/6 mice. As to conditions: Thymocyte. How it is done: Thymocytes were harvested from young C57Bl/6 mice and cultured at 37° C. in 5% CO2 in RPMI 1640 containing 10% FBS, 1% Penicillin/Streptomycin (Gibco BRL, Rockville, Md.). Thymocytes were plated at a density of 10^7 cells/mL and pre-incubated with 5-10 μM of test compounds, 1, 2, 4, and 11 (from 10 mM
[drawing 8] stock in DMSO) for 30 minutes before induction of apoptosis. Apoptosis was induced with 5 μM dexamethasone or by exposure to 6 Gy gamma radiation. After 6 hours, cell apoptosis was assayed by propidium iodide (PI) and 3,3′ dihexyloxacarbocyanine iodide (DiOC6) staining. The cells were removed from the plate and incubated for 30 minutes in medium with 40 nM DiOC6 and 5 μg/mL PI and then analyzed by flow cytometry in a FACS caliber (Beckton-Dickinson, San Jose, Calif.). Viable cells had high DiOC6 (FL-1) and low PI (FL-3), whereas apoptotic cells had low DiOC6 (FL-1) and […]. To evaluate the IC50s the thymocytes were pre-exposed to graded concentrations of selected compounds for 30 min and then apoptosis was induced with 5 μM dexamethasone. After 6 hours the cells were harvested and stained as above. The results are illustrated in FIGS. 1 and 2 IC50 Determination
The concentration (IC50) of each compound that inhibited dexamethasone-induced cell death by 50% was determined by nonlinear regression fitting of the data to a one-site model. Pseudo Hill slopes were determined by nonlinear regression fit of the data to a sigmoidal dose-response equation (variable slope): % viability=minimum %/viability+(maximum−minimum % viability)/[1+10(log IC50−X)^n], where X is the logarithm of inhibitor concentration, and n is the pseudo Hill slope and the maximum and minimum % viability were experimentally determined after dexamethasone exposure and drug treatment. IC50 values and 95% confidence intervals (CI) were derived from the sigmoid fits to the percent control transformed data shown using GraphPad Prism version 4.0b for Macintosh (GraphPad Software, San Diego, Calif.).
A general note: In flow cytometry, cells or beads pass a laser one at a time.

Another experiment has as its system cells. To be noted: cells pre-incubated with compound, then exposed to γ-radiation; cited from earlier work.
For experiment [1] the following is noted: mice; cited from earlier work.
[2] abbreviates: read-out: EC50, cytoprotective activity following in vitro dexamethasone treatment of mouse thymocytes.
[3] abbreviates: 5 μM dexamethasone, 30 min pre-incubation, 6 hours, 95% CI in parentheses, read-out: EC50, in vitro cytoprotection activity.

On to `Br.Cc1ccc(C(=O)Cn2c3c(sc2=N)CCCC3)cc1` [Compound 1, 2-(2-imino-4,5,6,7-tetrahydro-benzothiazol-3-yl)-1-p-tolyl-ethanone hydrobromide], for which the EC50 (as a rule, the concentration at which the effect is half-maximal) in the experiment on thymocytes (setting [2]) turned out to be 4.4 µM. The “apoptosis after γ-radiation” value in the experiment with cells was “decreased in apoptosis”. For the same compound, in experiment [1], the “mortality after γ-radiation” value was “reduced mortality”.

As for `CON=C(C[n+]1cccc2ccccc21)c1ccc(C)cc1` [Compound 4, 1-(2-Methoxyimino-2-p-tolyl-ethyl)-quinolinium bromide], the concentration giving a half-maximal response (EC50) in the experiment with thymocytes (setting [3]) and in the experiment with thymocytes (setting [2]) was 0.35 µM throughout.

For the compound `Cc1ccc(C(=O)C[n+]2cccc3ccccc32)cc1` [Compound 5, 1-(2-Oxo-2-p-tolyl-ethyl)-quinolinium bromide], the EC50 in the experiment on thymocytes (setting [3]) is above 10 µM.

As to `CON=C(Cn1c(=O)ccc2ccccc21)c1ccc(C)cc1` [Compound 6, 1-(2-Methoxyimino-2-p-tolyl-ethyl)-1H-quinolin-2-one], the EC50 in the experiment on thymocytes (setting [3]) was above 10 µM.

Consider `Cc1ccc(C(=O)Cn2c(=O)ccc3ccccc32)cc1` [Compound 7, 1-(2-Oxo-2-p-tolyl-ethyl)-1H-quinolin-2-one], for which the concentration giving a half-maximal response (EC50) with thymocytes (setting [3]) was above 10 µM.

On to `CON=C(C[n+]1ccccc1)c1ccc(C)cc1` [Compound 8, 1-(2-Methoxyimino-2-p-tolyl-ethyl)-pyridinium bromide], for which the EC50 with thymocytes (setting [3]) amounted to 5.1 µM.

As for `Cc1ccc(C(=O)C[n+]2ccccc2)cc1` [Compound 9, 1-(2-Oxo-2-p-tolyl-ethyl)-pyridinium bromide], the EC50 in the experiment with thymocytes (setting [3]) is above 10 µM.

On to `CON=C(C[n+]1cccc2ccccc21)c1ccc(N2CCCC2)cc1` [Compound 11, 1-[2-Methoxyimino-2-(4-pyrrolidin-1-yl-phenyl)-ethyl]-quinolinium bromide], for which the 50% effective concentration (EC50) in the experiment with thymocytes (setting [3]) is 0.013 µM.

As to `CON=C(Cn1c(=O)ccc2ccccc21)c1ccc(N2CCCC2)cc1` [Compound 12, 1-[2-Methoxyimino-2-(4-pyrrolidin-1-yl-phenyl)-ethyl]-1H-quinolin-2-one], the 50% effective concentration (EC50) in the experiment on thymocytes (setting [3]) is above 10 µM.

In the case of `CON=C(C[n+]1ccccc1)c1ccc(N2CCCC2)cc1` [Compound 13, 1-[2-Methoxyimino-2-(4-pyrrolidin-1-yl-phenyl)-ethyl]-pyridinium bromide], in the experiment on thymocytes (setting [3]), the EC50 came to 0.28 µM.
